# Literature values, collected in patent US20030077328A1, “Method and composition for inhibiting post-surgical adhesions” (priority 1995, published 2003).
# Test system: post-traumatic adhesion formation
# Conditions: hamster; 0.1 to 10 mg/kg subcutaneously at 12-hour intervals
structure (smiles),measurement,value
CC(=O)CCCCn1c(=O)c2c(ncn2C)n(C)c1=O [pentoxifylline],protection against post-traumatic adhesion formation,provide protection against post-traumatic adhesion formation
